# Test results: PubChem BioAssay (NCI)
#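 Five concentrations, 48 hours, 96-well plates. Here, GI50 denotes the concentration required for 50% inhibition of growth. At the TGI there is no net growth.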
# How the values were obtained:
# Experiment in all cases: NCI-60 cell line screen, 48 h
# A549 NSCLC = test system: A549 NSCLC
# ACHN renal = test system: ACHN renal
# BT-549 breast = test system: BT-549 breast
# HT29 colon = test system: HT29 colon
# MOLT-4 leukemia = test system: MOLT-4 leukemia
# SF-295 CNS = test system: SF-295 CNS
# SF-539 CNS = test system: SF-539 CNS
# UO-31 renal = test system: UO-31 renal
Compound,GI50 (A549 NSCLC) [µM],TGI (A549 NSCLC) [µM],GI50 (ACHN renal) [µM],TGI (ACHN renal) [µM],GI50 (BT-549 breast) [µM],TGI (BT-549 breast) [µM],GI50 (HT29 colon) [µM],TGI (HT29 colon) [µM],GI50 (MOLT-4 leukemia) [µM],TGI (MOLT-4 leukemia) [µM],GI50 (SF-295 CNS) [µM],TGI (SF-295 CNS) [µM],GI50 (SF-539 CNS) [µM],TGI (SF-539 CNS) [µM],GI50 (UO-31 renal) [µM],TGI (UO-31 renal) [µM]
Fc1c[c-]c(-c2ccccn2)c(F)c1.[CH3-].[Pt+2].c1ccc(P(C[PH+](c2ccccc2)c2ccccc2)c2ccccc2)cc1,0.393,4.7,0.792,1.49,0.492,1.49,0.5,3.73,0.825,5.81,0.708,1.82,0.838,1.62,0.731,1.41
COc1ccc(-c2cc(/C=C/C(=O)c3cc(OC)c(OC)c(OC)c3)[nH]n2)cc1OC,2.39,9.34,1.45,2.82,1.36,2.93,1.3,2.73,1.81,8.86,1.67,4.26,0.309,1.48,1.27,2.59
O=C(/C=C/c1cn(-c2ccccc2)nc1-c1ccc([N+](=O)[O-])cc1)c1ccc(Cl)cc1,–,–,3.64,> 43.6,3.13,> 32.1,–,–,1.27,> 100,2.68,12.3,2.19,–,–,–
NC(=O)c1cc(I)ccc1NC(=O)COc1ccccc1,0.63,> 100,1.5,> 100,0.644,31.5,0.367,> 100,1.05,> 78.4,0.256,3.39,0.29,1.58,4.27,> 100
O=C(O)C1C(C(=O)O)C2(Cl)C(Cl)=C(Cl)C1(Cl)C2(Cl)Cl.[Cd] (stereo unspecified),18.7,39,21.3,43.9,1.33,2.74,18.4,35.9,22,60.9,> 100,> 100,3.66,11.7,20.1,39.3
C=CC(=O)Nc1cccc(Nc2nc(Nc3ccc(OCCOC(F)F)cc3)ncc2F)c1,3.56,20.2,1.35,10.4,1.36,11.6,2.67,13.5,3.73,> 100,6.04,83.4,–,–,1.29,9.56
O=c1[nH]c2cc(Cl)c(Cl)cc2n2cc3ccccc3c12,18.9,34.5,15.5,28.9,26.5,57.2,29,> 100,18.7,36.7,16.2,29.9,19.1,39.5,17.9,32.8
Fc1cc(-c2nnc3n2N=C(c2ccc(Cl)cc2Cl)CS3)c(Cl)cc1Cl,58,> 100,66.6,> 100,–,–,40.5,> 100,75.1,> 100,36.4,> 100,39.2,> 100,60.2,> 100
CC1(C)C2CCC13C(=O)C1OC3(C2)C2C(=O)c3c(O)cccc3C(=O)C12 (stereo unspecified),1.24,4.57,1.56,2.98,1.2,3.34,3.58,9.4,0.111,–,0.156,0.442,2.64,8.05,4.5,18.5
CCCCCCCCCCCCCCCCS(=O)(=O)c1ccc(NN)cc1,–,> 10,–,> 10,–,> 10,–,> 10,–,> 10,–,> 10,–,> 10,–,–
O=C(Nc1ccccc1O)c1ccc(CNC(=O)c2ccsc2Nc2ccnc(C(F)(F)F)c2)cc1,3.21,12.5,2.6,10.3,1.89,5.04,3.05,12.6,0.956,9.48,1.86,4.51,1.95,18.1,1.32,4.34
c1cnc2[nH]cc(-c3csc(-c4cn(CCCN5CCCCC5)c5ccccc45)n3)c2c1,1.97,3.63,1.66,3.05,1.68,3.24,1.75,3.44,1.82,3.52,1.65,3.18,1.68,3.1,1.18,2.5
COc1cc(O)c(C(C)=O)c(O)c1,–,> 100,–,> 100,–,–,–,> 100,–,–,–,> 100,–,> 100,–,> 100
CCN(CC)CCOc1ccc(/C=C2\CC3C4CC=C5C[C@@H](OC(C)=O)CC[C@]5(C)C4CC[C@]3(C)C2=O)cc1OC (stereo partly specified),17.7,44.9,9.84,21.5,11.4,33,4.07,> 100,1.45,> 100,2.02,3.94,–,–,11.1,23.1
O=C(O)Cn1ccnc1[N+](=O)[O-],–,> 100,–,> 100,–,> 100,–,> 100,–,> 100,–,> 100,–,> 100,–,> 100
O=C(Nc1ccc(Cl)cc1)Nc1ccccc1CNc1nc(Nc2ccc(OCCN3CCCC3)cc2)ncc1Cl,1.49,4.49,0.929,1.78,5.87,12.6,1.19,3.28,1.19,2.99,7.65,14.6,0.863,1.61,0.782,1.59
COc1ccc2[nH]c(-c3ccccc3)cc2c1,> 100,> 100,> 100,> 100,> 100,> 100,> 100,> 100,> 100,> 100,84.7,> 100,> 100,> 100,> 100,> 100

Compound,GI50 (A549 NSCLC) [µM],TGI (A549 NSCLC) [µM],GI50 (ACHN renal) [µM],TGI (ACHN renal) [µM],GI50 (BT-549 breast) [µM],TGI (BT-549 breast) [µM],GI50 (HT29 colon) [µM],TGI (HT29 colon) [µM],GI50 (MOLT-4 leukemia) [µM],TGI (MOLT-4 leukemia) [µM],GI50 (SF-295 CNS) [µM],TGI (SF-295 CNS) [µM],GI50 (SF-539 CNS) [µM],TGI (SF-539 CNS) [µM],GI50 (UO-31 renal) [µM],TGI (UO-31 renal) [µM]
O=C(Nc1cc(S(=O)(=O)c2ccc(Cl)cc2)ccc1Cl)c1cc(I)cc(I)c1O,19.3,38.2,17.1,36,19.9,39.8,16.4,30.2,19.3,41,15.1,32,18.6,38.2,20.9,38.8
COc1ccc2c(c1)nc1n2C(c2ccc(F)cc2)SC1 (stereo unspecified),25.4,> 100,20.8,47.3,17.1,42.1,–,–,26.8,> 100,27.9,> 100,–,–,23.5,67.9
CC(C)(C)[Si](C)(C)OCC1OC(n2cnc3c(N)ncnc32)C(O)C1O (stereo unspecified),–,> 100,–,> 100,–,> 100,–,> 100,–,> 100,–,> 100,–,> 100,–,> 100
COc1cc2cc(Oc3ccc(NC(=O)c4cccc5c4OCCO5)cc3)c(C)nc2cc1OC,7.04,> 100,4.01,27.3,1.71,4.42,6.12,> 100,4.53,> 100,2.91,> 100,9.09,> 100,4.17,> 100
COc1ccc(-c2nc3c(c(=O)n2C(C)=O)C(c2ccc(Cl)cc2)c2sc4c(Cl)cccc4c2O3)cc1 (stereo unspecified),0.625,2.2,0.897,4.51,0.355,2.07,0.325,1.09,0.386,2.64,0.256,1.27,0.259,0.84,0.329,2.39
CCOCNc1ccc(N2C(=O)/C(=C/c3ccc(N(CC)CC)cc3)N=C2c2ccccc2)cc1,11.4,> 100,17.5,> 100,33.5,> 100,6.88,> 100,4.57,> 100,9.8,> 100,4.87,26.7,–,–
C/C(=N\n1c(N)c(C#N)c(-c2ccc(Cl)cc2)c(C#N)c1=O)c1ccncc1,7.58,65.4,20.9,49.5,–,–,> 100,> 100,> 100,> 100,4.65,86,–,–,7.33,> 100
COc1ccc(NC(=O)c2sc3nc4c(cc3c2N)CCCC4)cc1,1.18,> 100,0.627,> 100,0.41,13.9,0.345,3.36,0.442,30.5,0.314,20.2,0.372,6.52,0.795,> 100
COc1ccc(C(=O)C[C@]2(O)C(=O)Nc3c(Cl)ccc(Cl)c32)cc1,0.766,> 100,0.774,> 100,0.59,> 72.9,0.376,–,0.533,> 100,0.516,> 100,0.478,3.99,1.47,> 100
CCC(=O)c1cc([N+](=O)[O-])c(Br)s1,5.27,19.6,1.71,3.26,–,–,1.52,3.29,2.7,13.2,15.5,31.6,3.9,16.8,1.59,2.98
Cc1ccc(-n2c3c(c4c(CN5CCOCC5)c(O)ccc42)CCc2ccccc2C3=O)cc1,82.3,> 100,> 100,> 100,33.8,> 100,–,0.241,35.1,> 100,> 100,> 100,> 100,> 100,> 100,> 100
CC12OC(C(=O)C13CCC3)C1C(=O)c3ccccc3C(=O)C12 (stereo unspecified),> 100,> 100,> 100,> 100,> 100,> 100,> 100,> 100,37.6,> 100,–,–,> 100,> 100,> 100,> 100
C1=C2CNCC3=Cc4ccc5ccccc5c4OC23Oc2c1ccc1ccccc21,4.48,20.5,–,–,11.3,40.7,–,–,2.86,10.6,3.07,15.6,3.36,14.9,3.54,21.5
O=c1oc2ccc(F)cc2c(=O)n1-c1ccc(Br)cc1F,2.29,> 100,0.59,13.6,0.411,2.19,3.4,> 44.3,–,–,1.82,3.63,0.45,6.35,0.194,1.7
COC(=O)c1cc2c3c(ccc2[nH]1)N(C(=O)c1cc2c4c(ccc2[nH]1)N(C(=O)c1cc2c5c(ccc2[nH]1)N(C(N)=O)CC5)CC4)CC3,–,> 100,–,> 27.8,–,–,–,> 100,–,> 100,–,44,–,> 34.8,–,8.47
C=C(CNCCc1ccc(O)cc1)[C@@H]1CC[C@]2(CO)CC[C@]3(C)[C@H](CC[C@@H]4[C@@]5(C)CCC(N)C(C)(C)[C@@H]5CC[C@]43C)[C@@H]12 (stereo partly specified),1.66,3.13,1.78,3.19,1.7,3.53,0.46,1.81,–,–,1.73,3.3,1.56,2.94,1.42,2.76
